Measurements published in PMC9732672, “Pyrazolyl-s-triazine with indole motif as a novel of epidermal growth factor receptor/cyclin-dependent kinase 2 dual inhibitors” (Frontiers in Chemistry, 2022).
Like-named read-outs stand apart in the source and are kept apart here.

Experiments:
[1] = test system: MCF-7 (breast cancer) cells; assay: MTT cytotoxicity assay, MCF-7; type: cell-based, human; details: read-out: IC50 ± STDEV, MCF-7
Method: (§1) The parental MCF7 (breast cancer cell line), A549 (non-small cell lung cancer cell line), and human dermal fibroblast (HDF) (human dermal cell line) cells were obtained from the American Type Culture Collection (ATCC, Manassas, VA, United States). MCF7 and A549 cells were cultured in RPMI 1640 medium (EuroClone, Italy) supplemented with 10% (v/v) heat-inactivated fetal bovine serum (FBS) (EuroClone, Italy), 1% penicillin-streptomycin (EuroClone, Italy), and 2 mM L-glutamine.
(§2) The cytotoxic activity of the tested compounds were tested using MTT assay. […] Then, the cell viability was recored and IC50 values were calcualted. ([Mosmann, 1983]; [Nafie et al., 2020c]).

[2] = test system: A549 (non-small cell lung cancer) cells; assay: MTT cytotoxicity assay, A549; type: cell-based, human; details: read-out: IC50 ± STDEV, A549
Method: as §1, §2

[3] = test system: HDFs (non-cancerous human dermal fibroblasts); assay: MTT cytotoxicity assay, HDFs; type: cell-based; details: non-cancerous cells, average ±SD of four independent experiments, read-out: IC50 ± STDEV, HDFs
Method: as §1, §2

A549 cells = assay: Flow cytometry, Annexin V/PI staining; type: cell-based, human; details: A549, IC50 value, 48 h; for cells undergoing late apoptosis: control 0.16%; for cells undergoing early apoptosis: control 0.42%; for total apoptosis / total apoptotic cell death, fold vs control: control 0.61%; for necrosis-mediated cell death / necrosis-mediated cell death, fold increase: control 0.97%
Method: A549 cells were seeded into 6-well culture plates (3-5× 10^5 cells/well) and incubated overnight. […] Next, media supernatants and cells were collected and rinsed with ice-cold PBS. The cells were then suspended in the flow cytometry solutions and cells were stained with Annexin V/PI, and data was acquired using a Cytoflex FACS machine. Data were analyzed using cytExpert software. ([Hisham et al., 2019]; [Khodair et al., 2019]; [Nafie et al., 2020b]).

CDK-2 = CDK-2 (Homo sapiens, UniProt P24941); assay: CDK-2 enzyme inhibition; type: biochemical; details: Mean ± SD of three independent replicates
EGFR = molecular target: T1, EGFR (Homo sapiens, UniProt P00533); assay: EGFR-TK kinase assay (ADP-Glo); type: biochemical; details: Mean ± SD of three independent replicates; read-out: EGFR inhibition IC50
T1 construct: purchased Promega V9261
T1 sequence (P00533 25-1210): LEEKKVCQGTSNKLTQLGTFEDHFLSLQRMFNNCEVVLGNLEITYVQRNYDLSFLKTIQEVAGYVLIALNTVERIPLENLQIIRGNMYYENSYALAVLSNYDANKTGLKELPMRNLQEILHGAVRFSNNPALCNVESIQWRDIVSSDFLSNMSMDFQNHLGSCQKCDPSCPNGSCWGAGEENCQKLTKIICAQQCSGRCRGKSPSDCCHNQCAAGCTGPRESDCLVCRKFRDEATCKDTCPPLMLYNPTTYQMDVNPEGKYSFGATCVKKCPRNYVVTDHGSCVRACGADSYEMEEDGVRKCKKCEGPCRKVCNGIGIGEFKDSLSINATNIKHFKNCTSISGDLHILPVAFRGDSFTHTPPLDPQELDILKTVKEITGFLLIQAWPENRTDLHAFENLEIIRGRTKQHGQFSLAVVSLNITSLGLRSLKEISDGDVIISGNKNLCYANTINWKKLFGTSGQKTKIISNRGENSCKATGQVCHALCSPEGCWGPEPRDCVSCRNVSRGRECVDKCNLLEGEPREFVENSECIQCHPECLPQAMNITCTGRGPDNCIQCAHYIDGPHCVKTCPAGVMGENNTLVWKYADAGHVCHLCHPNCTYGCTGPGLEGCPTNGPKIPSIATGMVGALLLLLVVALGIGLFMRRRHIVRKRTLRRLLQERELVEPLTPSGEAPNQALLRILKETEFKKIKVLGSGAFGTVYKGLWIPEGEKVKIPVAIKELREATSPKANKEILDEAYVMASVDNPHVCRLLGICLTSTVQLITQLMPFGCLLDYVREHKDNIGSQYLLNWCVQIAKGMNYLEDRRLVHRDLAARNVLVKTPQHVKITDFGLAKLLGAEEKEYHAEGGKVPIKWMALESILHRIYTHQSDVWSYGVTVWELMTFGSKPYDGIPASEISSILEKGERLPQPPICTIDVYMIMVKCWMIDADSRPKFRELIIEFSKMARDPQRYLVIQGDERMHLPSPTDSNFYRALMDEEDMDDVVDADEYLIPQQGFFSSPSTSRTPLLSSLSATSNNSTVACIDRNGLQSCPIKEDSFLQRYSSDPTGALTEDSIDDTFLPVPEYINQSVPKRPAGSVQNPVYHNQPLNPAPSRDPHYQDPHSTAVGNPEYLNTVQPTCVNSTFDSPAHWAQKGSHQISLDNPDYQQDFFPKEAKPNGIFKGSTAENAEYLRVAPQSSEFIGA
Method: EGFR-TK assay kit (ADP-Glo™ kinase assay, Cat No. V9261, Promega, United States) kinase assay was performed to evaluate the capacity of 3h, 3i, and 3j to inhibit EGFR.

[4] = Homo sapiens, MCF7, average ±SD of four independent experiments
[5] = Homo sapiens, A549, average ±SD of four independent experiments
[6] = average ±SD of four independent experiments

Compound | melting point [°C] | IC50 [1, 4] [µM] | IC50 [2, 5] [µM] | IC50 ([3]; Homo sapiens, Fibroblast) [µM] | also measured
N#Cc1cnn(-c2nc(Nc3ccc(Br)cc3)nc(N3CCOCC3)n2)c1-c1c[nH]c2ccccc12 [Compound 5j, 1-(4-((4-Bromophenyl)amino)-6-morpholino-1,3,5-triazin-2-yl)-5-(1H-indol-3-yl)-1H-pyrazole-4-carbonitrile] | – | 51.1 ± 10.3 | 23.2 ± 2.27 | > 500 | –
N#Cc1cnn(-c2nc(Nc3ccc(Cl)cc3)nc(N3CCCCC3)n2)c1-c1c[nH]c2ccccc12 [Compound 5e, 1-(4-((4-Chlorophenyl)amino)-6-(piperidin-1-yl)-1,3,5-triazin-2-yl)-5-(1H-indol-3-yl)-1H-pyrazole-4-carbonitrile] | – | > 500 | > 500 | > 500 | –
2-(4,6-Di (piperidin-1-yl)-1,3,5-triazin-2-yl)-3-(1H-indol-3-yl)-2,3-dihydro-1H-pyrazole-4-carbonitrile [Compound 5a] | – | – | – | – | IC50 [1, 6]: 65.2 ± 1.43 µM; IC50 [2, 6]: 66.1 ± 5.71 µM; IC50 [3]: > 500 µM
Nc1cc(-c2c[nH]c3ccccc23)nn1-c1nc(N2CCCCC2)nc(N2CCOCC2)n1 [Compound 3c, 3-(1H-Indol-3-yl)-1-(4-morpholino-6-(piperidin-1-yl)-1,3,5-triazin-2-yl)-1H-pyrazol-5-amine] | 178 to 179 | 12.6 ± 1.03 | 4.82 ± 0.29 | 6.82 ± 1.34 | –
N#Cc1cnn(-c2nc(N3CCOCC3)nc(N3CCOCC3)n2)c1-c1c[nH]c2ccccc12 [Compound 5b, 1-(4,6-Dimorpholino-1,3,5-triazin-2-yl)-5-(1H-indol-3-yl)-1H-pyrazole-4 carbonitrile] | 328 to 330 | > 500 | > 500 | > 500 | –
Nc1cc(-c2c[nH]c3ccccc23)nn1-c1nc(Nc2ccccc2)nc(N2CCCCC2)n1 [Compound 3d, 4-(5-Amino-3-(1H-indol-3-yl)-1H-pyrazol-1-yl)-N-phenyl-6-(piperidin-1-yl)-1,3,5-triazin-2-amine] | – | 11.7 ± 4.43 | 10.6 ± 2.88 | 22.9 ± 5.2 | –
N#Cc1cnn(-c2nc(Nc3ccc(Cl)cc3)nc(N3CCOCC3)n2)c1-c1c[nH]c2ccccc12 [Compound 5i, 1-(4-((4-Chlorophenyl)amino)-6-morpholino-1,3,5-triazin-2-yl)-5-(1H-indol-3-yl)-1H-pyrazole-4-carbonitrile] | – | 59.8 ± 0.81 | 44.5 ± 19.2 | > 500 | –
COc1ccc(Nc2nc(N3CCCCC3)nc(-n3nc(-c4c[nH]c5ccccc45)cc3N)n2)cc1 [Compound 3g, 4-(5-Amino-3-(1H-indol-3-yl)-1H-pyrazol-1-yl)-N-(4-methoxyphenyl)-6-(piperidin-1-yl)-1,3,5-triazin-2-amine] | – | 7.68 ± 0.21 | 6.23 ± 0.48 | 4.36 ± 0.83 | –
N#Cc1cnn(-c2nc(N3CCCCC3)nc(N3CCOCC3)n2)c1-c1c[nH]c2ccccc12 [Compound 5c, 5-(1H-Indol-3-yl)-1-(4-morpholino-6-(piperidin-1-yl)-1,3,5-triazin-2-yl)-1H-pyrazol4-carbonitrile] | – | 152 ± 50.1 | 223 ± 88.3 | 537 ± 71.6 | –
COc1ccc(Nc2nc(N3CCOCC3)nc(-n3nc(-c4c[nH]c5ccccc45)cc3N)n2)cc1 [Compound 3k, 4-(5-Amino-3-(1H-indol-3-yl)-1H-pyrazol-1-yl)-N-(4-methoxyphenyl)-6-morpholino-1,3,5-triazin-2-amine] | – | 4.11 ± 0.5 | 3.64 ± 1.26 | 8.9 ± 1.07 | –
Nc1cc(-c2c[nH]c3ccccc23)nn1-c1nc(Nc2ccc(Br)cc2)nc(N2CCOCC2)n1 [Compound 3j, 4-(5-Amino-3-(1H-indol-3-yl)-1H-pyrazol-1-yl)-N-(4-bromophenyl)-6-morpholino-1,3,5-triazin-2-amine] | – | 3.3 ± 0.32 | 2.32 ± 0.21 | 3.96 ± 0.73 | cells undergoing late apoptosis (A549 cells): 8.5%; cells undergoing early apoptosis (A549 cells): 22.6%; total apoptosis (A549 cells): 31.1%; total apoptotic cell death, fold vs control (A549 cells): 50.9 fold; necrosis-mediated cell death (A549 cells): 5.42%; necrosis-mediated cell death, fold increase (A549 cells): 5.58 fold; IC50 (CDK-2): 0.136 ± 0.00314 µM; IC50 (EGFR): 0.0684 ± 0.00298 µM
Nc1cc(-c2c[nH]c3ccccc23)nn1-c1nc(N2CCOCC2)nc(N2CCOCC2)n1 [Compound 3b, 1-(4,6-Dimorpholino-1,3,5-triazin-2-yl)-3-(1H-indol-3-yl)-1H-pyrazol-5-amine] | 188 to 189 | 11.7 ± 1.77 | 3.08 ± 1.27 | 4.47 ± 1.43 | –
COc1cccc2c1C(=O)c1c(O)c3c(c(O)c1C2=O)C[C@@](O)(C(=O)CO)C[C@@H]3O[C@H]1C[C@H](N)[C@H](O)[C@H](C)O1 [Doxorubicin, reference compound] | – | 0.06 ± 0.02 | 0.28 ± 0.11 | 0.42 ± 0.27 | –
Nc1cc(-c2c[nH]c3ccccc23)nn1-c1nc(Nc2ccccc2)nc(N2CCOCC2)n1 [Compound 3h, 4-(5-Amino-3-(1H-indol-3-yl)-1H-pyrazol-1-yl)-6-morpholino-N-phenyl-1,3,5-triazin-2-amine] | – | 2.66 ± 0.26 | 2.65 ± 0.22 | 14 ± 2.67 | cells undergoing late apoptosis (A549 cells): 12%; cells undergoing early apoptosis (A549 cells): 19.4%; total apoptosis (A549 cells): 31.4%; total apoptotic cell death, fold vs control (A549 cells): 51.4 fold; necrosis-mediated cell death (A549 cells): 4.98%; necrosis-mediated cell death, fold increase (A549 cells): 5.1 fold; IC50 (CDK-2): 0.112 ± 0.00301 µM; IC50 (EGFR): 0.0642 ± 0.00312 µM
N#Cc1cnn(-c2nc(Nc3ccc(Br)cc3)nc(N3CCCCC3)n2)c1-c1c[nH]c2ccccc12 [Compound 5f, 1-(4-((4-Bromophenyl)amino)-6-(piperidin-1-yl)-1,3,5-triazin-2-yl)-5-(1H-indol-3-yl)-1H-pyrazole-4-carbonitrile] | – | > 500 | > 500 | > 500 | –
Nc1cc(-c2c[nH]c3ccccc23)nn1-c1nc(Nc2ccc(Cl)cc2)nc(N2CCCCC2)n1 [Compound 3e, 4-(5-Amino-3-(1H-indol-3-yl)-1H-pyrazol-1-yl)-N-(4-chlorophenyl)-6-(piperidin-1-yl)-1,3,5-triazin-2-amine] | 295 to 296 | 15.2 ± 0.74 | 9.57 ± 1.26 | 11.2 ± 0.69 | –

Continued, in another order:

melting point [°C] | Compound | IC50 [1, 4] [µM] | IC50 [2, 5] [µM] | IC50 ([3]; Homo sapiens, Fibroblast) [µM] | also measured
273 to 275 | COc1ccc(Nc2nc(N3CCCCC3)nc(-n3ncc(C#N)c3-c3c[nH]c4ccccc34)n2)cc1 [Compound 5g, 5-(1H-Indol-3-yl)-1-(4-((4-methoxyphenyl)amino)-6-(piperidin-1-yl)-1,3,5-triazin-2-yl)-1H-pyrazole-4-carbonitrile] | > 500 | > 500 | > 500 | –
288 to 290 | Nc1cc(-c2c[nH]c3ccccc23)nn1-c1nc(N2CCCCC2)nc(N2CCCCC2)n1 [Compound 3a, 1-(4,6-Di (piperidin-1-yl)-1,3,5-triazin-2-yl)-3-(1H-indol-3-yl)-1H-pyrazol-5-amine] | > 500 | > 500 | > 500 | –
314 to 316 | N#Cc1cnn(-c2nc(Nc3ccccc3)nc(N3CCOCC3)n2)c1-c1c[nH]c2ccccc12 [Compound 5h, 5-(1H-Indol-3-yl)-1-(4-morpholino-6-(phenylamino)-1,3,5-triazin-2-yl)-1H-pyrazole-4-carbonitrile] | – | 7.62 ± 0.85 | 23.8 ± 3.37 | –
298 to 299 | N#Cc1cnn(-c2nc(Nc3ccccc3)nc(N3CCCCC3)n2)c1-c1c[nH]c2ccccc12 [Compound 5d, 5-(1H-Indol-3-yl)-1-(4-(phenylamino)-6-(piperidin-1-yl)-1,3,5-triazin-2-yl)-1H-pyrazole-4-carbonitrile] | 16.8 ± 0.78 | 10.3 ± 2.64 | 115 ± 14.8 | –
293 to 295 | COc1ccc(Nc2nc(N3CCOCC3)nc(-n3ncc(C#N)c3-c3c[nH]c4ccccc34)n2)cc1 [Compound 5k, 5-(1H-Indol-3-yl)-1-(4-((4-methoxyphenyl)amino)-6-morpholino-1,3,5-triazin-2-yl)-1H-pyrazole-4-carbonitrile] | > 500 | > 500 | > 500 | –
271 to 274 | Nc1cc(-c2c[nH]c3ccccc23)nn1-c1nc(Nc2ccc(Br)cc2)nc(N2CCCCC2)n1 [Compound 3f, 4-(5-Amino-3-(1H-indol-3-yl)-1H-pyrazol-1-yl)-N-(4-bromophenyl)-6-(piperidin-1-yl)-1,3,5-triazin-2-amine] | 13.2 ± 0.55 | 14.8 ± 0.83 | 6.8 ± 1.02 | –
